From the supplement of paper PMC11451515

System: P12-Ichikawa
Test: cell viability relative to DMSO control; higher = less cytotoxic
Settings: 48 h
Procedure, shortened: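 Viability was expressed as a per-plate percentage of DMSO wells, with cell-free wells as background. Leukemia cells (NOMO1 or SEM at 500 cells/well, P12-Ichikawa at 1000 cells/well) were adapted for at least four passages in each medium and seeded in 1536-well plates (5 μl). Library compounds in DMSO were pin-dosed over an 11-point threefold series from 47 μM to 0.79 nM, and CellTiter-Glo One luminescence was read after 48 h at 37°C.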

[1] = HPLM + 10% dialyzed FBS, 0.000781 µM
[2] = HPLM + 10% dialyzed FBS, 0.00234 µM
[3] = HPLM + 10% dialyzed FBS, 0.00702 µM
[4] = HPLM + 10% dialyzed FBS, 0.0211 µM
[5] = HPLM + 10% dialyzed FBS, 0.0632 µM
[6] = HPLM + 10% dialyzed FBS, 0.19 µM
[7] = HPLM + 10% dialyzed FBS, 0.569 µM
[8] = HPLM + 10% dialyzed FBS, 1.71 µM
[9] = HPLM + 10% dialyzed FBS, 5.12 µM
[10] = HPLM + 10% dialyzed FBS, 15.4 µM
[11] = HPLM + 10% dialyzed FBS, 46.1 µM
[12] = RPMI 5 mM glucose + 10% FBS, 0.000781 µM
[13] = RPMI 5 mM glucose + 10% FBS, 0.00234 µM
[14] = RPMI 5 mM glucose + 10% FBS, 0.00702 µM
[15] = RPMI 5 mM glucose + 10% FBS, 0.0211 µM
[16] = RPMI 5 mM glucose + 10% FBS, 0.0632 µM
[17] = RPMI 5 mM glucose + 10% FBS, 0.19 µM
[18] = RPMI 5 mM glucose + 10% FBS, 0.569 µM
[19] = RPMI 5 mM glucose + 10% FBS, 1.71 µM
[20] = RPMI 5 mM glucose + 10% FBS, 5.12 µM
[21] = RPMI 5 mM glucose + 10% FBS, 15.4 µM
[22] = RPMI 5 mM glucose + 10% FBS, 46.1 µM
[23] = RPMI 5 mM glucose + 10% dialyzed FBS, 0.000781 µM
[24] = RPMI 5 mM glucose + 10% dialyzed FBS, 0.00234 µM
[25] = RPMI 5 mM glucose + 10% dialyzed FBS, 0.00702 µM
[26] = RPMI 5 mM glucose + 10% dialyzed FBS, 0.0211 µM
[27] = RPMI 5 mM glucose + 10% dialyzed FBS, 0.0632 µM
[28] = RPMI 5 mM glucose + 10% dialyzed FBS, 0.19 µM
[29] = RPMI 5 mM glucose + 10% dialyzed FBS, 0.569 µM
[30] = RPMI 5 mM glucose + 10% dialyzed FBS, 1.71 µM
[31] = RPMI 5 mM glucose + 10% dialyzed FBS, 5.12 µM
[32] = RPMI 5 mM glucose + 10% dialyzed FBS, 15.4 µM
[33] = RPMI 5 mM glucose + 10% dialyzed FBS, 46.1 µM

Structure (SMILES)	cell viability [1] [%]	cell viability [2] [%]	cell viability [3] [%]	cell viability [4] [%]	cell viability [5] [%]	cell viability [6] [%]	cell viability [7] [%]	cell viability [8] [%]	cell viability [9] [%]	cell viability [10] [%]	cell viability [11] [%]	cell viability [12] [%]	cell viability [13] [%]	cell viability [14] [%]	cell viability [15] [%]	cell viability [16] [%]	cell viability [17] [%]	cell viability [18] [%]	cell viability [19] [%]	cell viability [20] [%]	cell viability [21] [%]	cell viability [22] [%]	cell viability [23] [%]	cell viability [24] [%]	cell viability [25] [%]	cell viability [26] [%]	cell viability [27] [%]	cell viability [28] [%]	cell viability [29] [%]	cell viability [30] [%]	cell viability [31] [%]	cell viability [32] [%]	cell viability [33] [%]
CCC(C)CCCCC(=O)N[C@@H](CCN)C(=O)NC(C(=O)N[C@H](CCN)C(=O)N[C@@H]1CCNC(=O)C([C@@H](C)O)NC(=O)[C@@H](CCN)NC(=O)[C@@H](CCN)NC(=O)[C@@H](CC(C)C)NC(=O)[C@H](Cc2ccccc2)NC(=O)[C@H](CCN)NC1=O)[C@@H](C)O (some centres not stated)	114	118	117	117	122	128	129	124	129	128	126	114	113	115	120	135	135	134	131	132	132	123	111	110	112	115	117	117	120	134	135	123	124
CCOC(=O)c1c(C)n(C)c2ccc(O)cc12	122	124	124	123	128	122	127	123	107	109	90.3																						
O=C(O)c1ccc(O)c2ncc(N3CCOCC3)cc12	106	105	100	108	107	103	97.2	99.9	98.6	95.6	7.44	102	99.1	96.8	92.8	95.7	97.6	96.6	94.2	87.8	85.2	9.83	98.5	95.2	104	90.9	98	97.7	105	102	81.8	84.7	5.31
Cc1cc(Nc2ncc3c(n2)N(C)C(=O)N(c2cc(NC(=O)c4cccc(C(F)(F)F)c4)ccc2C)C3)n(C)n1	116	114	117	120	119	120	114	90.4	79.3	55.8	7.23	106	120	124	123	133	115	105	73.5	66.5	52.5	5.53	111	119	116	132	124	122	111	76.1	72.1	50.9	5.1
CC/C=C\C[C@H]1C(=O)CC[C@@H]1CC(=O)OC	121	119	126	125	126	126	117	115	115	114	108												122	129	124	121	131	125	125	126	125	116	109
COCCn1c2c([n+](Cc3cnccn3)c1C)C(=O)c1ccccc1C2=O	116	115	113	112	104	51.4	41.9	15.8	5.02	2.55	1.1	110	108	118	106	112	48.9	17.6	6.76	3.92	3.27	2.14	113	108	112	110	106	51.4	11.7	5.22	3.6	2.56	1.9
CC(C)(N)C(=O)N[C@H](COCc1ccccc1)C(=O)N1CCC2(CC1)CN([S+](C)(=O)[O-])c1ccccc12																							124	122	141	126	125	124	123	114	109	91.8	20.3
COc1c(Cl)cc2c([nH]c3cnccc32)c1NC(=O)c1cccnc1C	103	99.3	102	106	107	109	99	99.1	94.9	94.7	93.1	107	105	107	108	112	108	96.1	105	110	105	96.9	102	110	104	96.9	106	106	97.7	94.1	95.4	95.6	82.8
CC(=O)N(C)C1(c2ccccc2)CCN(CCC[C@]2(c3ccc(Cl)c(Cl)c3)CCCN(C(=O)c3ccccc3)C2)CC1	115	114	115	116	114	108	91.1	54.9	45.1	33.9	7.84	110	110	110	107	114	119	111	88.4	55.8	41.1	12.1	110	107	110	112	117	108	99.8	79.9	38.9	18.5	11.2
